Data taken from patent US7410979B2, “Synergistically effective combinations of dihaloacetamide compounds and interferon or ribavirin against HCV infections” (Rigel Pharmaceuticals, Inc., priority 2003, dated 2008).

Tested on: HCV NS3
Experiment: Quantitative Western blot of HCV NS3 in replicon cells
Assay type: cell-based
Procedure: Certain exemplary synergistic combinations of the invention can also be tested for their ability to inhibit HCV replication using a quantitative Western blot analysis with antibodies specific for the HCV nonstructural protein NS3. Actively dividing 9-13 replicon cells can be seeded into 6-well plates at a density of 1×10^5 cells/well in a volume of 2 ml/well and can be incubated at 37° C. and 5% CO2 for 24 hours. Various concentrations of test compounds (in a volume of 10 ul) were can be added to the wells and the cells can be incubated for another 48 hours. Protein samples can be prepared from the cultured cells, then could be resolved on a SDS-PAGE gel and then could be transferred to a nitrocellulose membrane. The membrane can be blocked with 5% non-fat milk in PBS for 1 hour at room temperature. Primary antibody (anti NS3 antibody; Rigel Pharmaceuticals, South San Francisco, Calif.) incubation can be performed for 1 hour at room temperature, after which the membrane can be washed 3 times (for 15 min per time) with PBST (PBS plus 0.1% Tween 20). Horseradish peroxidase conjugated secondary antibody incubation can be performed for 1 hour at room temperature and the membrane can be washed 3 times (for 15 min per time) with PBST. The membrane can then be soaked in substrate solution (Pierce) and can then be exposed to a film or quantified using an imager. In this assay, the amount of test synergetic combination that yields a 50% reduction in the amount of NS3 protein translated as compared to a control sample (IC50) can be determined.

Compound | HCV NS3 protein level (FIG. 2, 100 nM of compound I and 20 μm ribavirin) | synergy between compound I and ribavirin (FIG. 2, ribavirin at constant concentration, concentration of compound I varied) | synergistic effects on HCV replication (FIG. 3, compound I, interferon-α and ribavirin) | HCV NS3 (FIGS. 3(c) and 3(d), increasing concentrations of compound I in combination with interferon-α and ribavirin) | effectiveness against HCV replication, as indicated by the reduction of HCV NS3 in replicon cells (FIG. 3(a), interferon-α alone at elevated concentrations)
O=C(Nc1ccnc(-c2cc(-c3c(Cl)cccc3Cl)no2)c1)C(Cl)Cl [compound I] | eliminated | synergy | synergistic effects | effectively eliminates | –
interferon-α | – | – | – | – | effective
